Test results taken from PubChem BioAssay (NCI).
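GI50: concentration for 50% inhibition of growth. TGI denotes the concentration required for complete inhibition of growth.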

Experiments:
Assay in all cases: inhibition of tumour cell growth, NCI panel, 384-well format
BT-549 breast = system: BT-549 breast
DU-145 prostate = system: DU-145 prostate
HS 578T breast = system: HS 578T breast
LOX IMVI melanoma = system: LOX IMVI melanoma
MALME-3M melanoma = system: MALME-3M melanoma
MDA-MB-231 breast = system: MDA-MB-231 breast
OVCAR-3 ovarian = system: OVCAR-3 ovarian
OVCAR-8 ovarian = system: OVCAR-8 ovarian
RXF 393 renal = system: RXF 393 renal
SK-OV-3 ovarian = system: SK-OV-3 ovarian
SN12C renal = system: SN12C renal
SR leukemia = system: SR leukemia
T-47D breast = system: T-47D breast

SMILES | GI50 (BT-549 breast) [µM] | TGI (BT-549 breast) [µM] | GI50 (DU-145 prostate) [µM] | TGI (DU-145 prostate) [µM] | GI50 (HS 578T breast) [µM] | TGI (HS 578T breast) [µM] | GI50 (LOX IMVI melanoma) [µM] | TGI (LOX IMVI melanoma) [µM] | GI50 (MALME-3M melanoma) [µM] | TGI (MALME-3M melanoma) [µM] | GI50 (MDA-MB-231 breast) [µM] | TGI (MDA-MB-231 breast) [µM] | GI50 (OVCAR-3 ovarian) [µM] | TGI (OVCAR-3 ovarian) [µM] | GI50 (OVCAR-8 ovarian) [µM] | TGI (OVCAR-8 ovarian) [µM] | GI50 (RXF 393 renal) [µM] | TGI (RXF 393 renal) [µM] | GI50 (SK-OV-3 ovarian) [µM] | TGI (SK-OV-3 ovarian) [µM] | further results
Cc1ncsc1-c1ccc(CNC(=O)[C@@H]2C[C@@H](O)CN2C(=O)[C@@H](NC(=O)C2(C#N)CC2)C(C)(C)C)cc1 | > 100 | > 100 | > 100 | > 100 | > 100 | > 100 | > 100 | > 100 | > 100 | > 100 | > 100 | > 100 | > 100 | > 100 | > 100 | > 100 | > 100 | > 100 | > 100 | > 100 | GI50 (SN12C renal): > 100 µM; TGI (SN12C renal): > 100 µM; GI50 (SR leukemia): > 100 µM; TGI (SR leukemia): > 100 µM; GI50 (T-47D breast): > 100 µM; TGI (T-47D breast): > 100 µM
O=C(NCc1ccncc1)C12CC3CC(C1)CC(c1ccc(Cl)cc1)(C3)C2 | 8.85 | 21.5 | 14.5 | 27.8 | 11.8 | 24.2 | 15.9 | 29.6 | 15.6 | 29.1 | 11.1 | 23.5 | 10.8 | 23.7 | 13 | 25.9 | 7.13 | 20 | 16 | 29.6 | GI50 (SN12C renal): 14.4 µM; TGI (SN12C renal): 27.5 µM; GI50 (SR leukemia): 5.05 µM; TGI (SR leukemia): 9.66 µM; GI50 (T-47D breast): 9.72 µM; TGI (T-47D breast): 23 µM
